Key:
Assay in all cases: cells
HCC2157 = assay type: functional, cell-based, Homo sapiens; details: Homo sapiens, HCC2157;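 note: growth inhibition of the cancer cell line, read out as cell viability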
Description: SANGER: Inhibition of human HCC2157 cell growth in a cell viability assay.

A3-KAW = assay type: functional, cell-based, Homo sapiens; details: Homo sapiens, A3-KAW;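 note: growth inhibition of human A3-KAW cells, read out with a cell viability assay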
Description: SANGER: Inhibition of human A3-KAW cell growth in a cell viability assay.

TE-9 = assay type: functional, cell-based, Homo sapiens; details: Homo sapiens, TE-9;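 note: cell growth inhibition, measured with a cell viability readout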
Description: SANGER: Inhibition of human TE-9 cell growth in a cell viability assay.

UACC-257 = assay type: functional, cell-based, Homo sapiens; details: Homo sapiens, UACC-257
Description: SANGER: Inhibition of human UACC-257 cell growth in a cell viability assay.

SJSA-1 = assay type: functional, cell-based, Homo sapiens; details: Homo sapiens, SJSA-1;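 note: growth inhibition of human SJSA-1 cells, read out through a cell viability measurement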
Description: SANGER: Inhibition of human SJSA-1 cell growth in a cell viability assay.

SW 962 = assay type: functional, cell-based, Homo sapiens; details: Homo sapiens, SW 962;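 note: growth inhibition of human SW962 cells, read out by a cell viability assay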
Description: SANGER: Inhibition of human SW962 cell growth in a cell viability assay.

MFM-223 = assay type: functional, cell-based, Homo sapiens; details: Homo sapiens, MFM-223
Description: SANGER: Inhibition of human MFM-223 cell growth in a cell viability assay.

BB49-HNC = assay type: functional, cell-based, Homo sapiens; details: Homo sapiens, BB49-HNC;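 note: cell viability assay read-out, reported as inhibition of BB49-HNC cell growth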
Description: SANGER: Inhibition of human BB49-HNC cell growth in a cell viability assay.

J-RT3-T3-5 = assay type: functional, cell-based, Homo sapiens; details: Homo sapiens, J-RT3-T3-5;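 note: cell viability assay measuring growth inhibition of human J-RT3-T3-5 cells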
Description: SANGER: Inhibition of human J-RT3-T3-5 cell growth in a cell viability assay.

SH-4 = assay type: functional, cell-based, Homo sapiens; details: Homo sapiens, SH-4;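 note: growth inhibition of SH-4 cells, read out with a cell viability assay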
Description: SANGER: Inhibition of human SH-4 cell growth in a cell viability assay.

NCI-H1838 = assay type: functional, cell-based, Homo sapiens; details: Homo sapiens, NCI-H1838;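 note: growth inhibition of NCI-H1838 cells, determined with a cell viability readout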
Description: SANGER: Inhibition of human NCI-H1838 cell growth in a cell viability assay.

COLO-824 = assay type: functional, cell-based, Homo sapiens; details: Homo sapiens, COLO-824
Description: SANGER: Inhibition of human COLO-824 cell growth in a cell viability assay.

SHP77 = assay type: functional, cell-based, Homo sapiens, SHP-77; details: Homo sapiens, SHP77;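 note: growth inhibition of human SHP-77 cells measured by a cell viability assay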
Description: SANGER: Inhibition of human SHP-77 cell growth in a cell viability assay.

COR-L88 = assay type: functional, cell-based, Homo sapiens; details: Homo sapiens, COR-L88;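 note: growth inhibition of COR-L88 cells, read out with a cell viability assay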
Description: SANGER: Inhibition of human COR-L88 cell growth in a cell viability assay.

ONS-76 = assay type: functional, cell-based, Homo sapiens; details: Homo sapiens, ONS-76;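 note: growth inhibition of human ONS-76 cells, read out with a cell viability assay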
Description: SANGER: Inhibition of human ONS-76 cell growth in a cell viability assay.

SK-MEL-2 = assay type: functional, cell-based, Homo sapiens; details: Homo sapiens, SK-MEL-2;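 note: growth inhibition of human SK-MEL-2 cells measured with a cell viability assay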
Description: SANGER: Inhibition of human SK-MEL-2 cell growth in a cell viability assay.

MZ2-MEL = assay type: functional, cell-based, Homo sapiens; details: Homo sapiens, MZ2-MEL;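 note: growth inhibition of MZ2-MEL cells read out with a cell viability assay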
Description: SANGER: Inhibition of human MZ2-MEL cell growth in a cell viability assay.

LB831-BLC = assay type: functional, cell-based, Homo sapiens; details: Homo sapiens, LB831-BLC;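 note: growth inhibition of LB831-BLC cells, read out with a cell viability assay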
Description: SANGER: Inhibition of human LB831-BLC cell growth in a cell viability assay.

DJM-1 = assay type: functional, cell-based, Homo sapiens; details: Homo sapiens, DJM-1;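 note: growth inhibition of human DJM-1 cells, read out by a cell viability assay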
Description: SANGER: Inhibition of human DJM-1 cell growth in a cell viability assay.

LOX IMVI = assay type: functional, cell-based, Homo sapiens; details: Homo sapiens, LOX IMVI
Description: SANGER: Inhibition of human LOXIMVI cell growth in a cell viability assay.

HCC1187 = assay type: functional, cell-based, Homo sapiens; details: Homo sapiens, HCC1187;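 note: growth inhibition of HCC1187 cells, read out with a cell viability assay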
Description: SANGER: Inhibition of human HCC1187 cell growth in a cell viability assay.

ACN = assay type: functional, cell-based, Homo sapiens; details: Homo sapiens, ACN;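 note: growth inhibition of the human ACN cell line, read out via cell viability testing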
Description: SANGER: Inhibition of human ACN cell growth in a cell viability assay.

HCC 2998 = assay type: functional, cell-based, Homo sapiens; details: Homo sapiens, HCC 2998;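 note: growth inhibition of human HCC2998 cells, measured with a cell viability read-out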
Description: SANGER: Inhibition of human HCC2998 cell growth in a cell viability assay.

NCI-H1770 = assay type: functional, cell-based, Homo sapiens; details: Homo sapiens, NCI-H1770;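 note: growth inhibition of NCI-H1770 cells determined with a viability readout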
Description: SANGER: Inhibition of human NCI-H1770 cell growth in a cell viability assay.

NCI-N87 = assay type: functional, cell-based, Homo sapiens; details: Homo sapiens, NCI-N87;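 note: growth inhibition of human NCI-N87 cells, read out with a cell viability assay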
Description: SANGER: Inhibition of human NCI-N87 cell growth in a cell viability assay.

SK-UT-1 = assay type: functional, cell-based, Homo sapiens; details: Homo sapiens, SK-UT-1;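 note: growth inhibition of SK-UT-1 cells, measured by a cell viability assay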
Description: SANGER: Inhibition of human SK-UT-1 cell growth in a cell viability assay.

SBC-1 = assay type: functional, cell-based, Homo sapiens; details: Homo sapiens, SBC-1;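 note: cell viability assay measuring growth inhibition of the SBC-1 cell line, IC50 being the concentration that halves growth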
Description: SANGER: Inhibition of human SBC-1 cell growth in a cell viability assay.

LS-411N = assay type: functional, cell-based, Homo sapiens; details: Homo sapiens, LS-411N
SCH = assay type: functional, cell-based, Homo sapiens; details: Homo sapiens, SCH;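 note: growth inhibition of human SCH cells, read out in a cell viability assay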
Description: SANGER: Inhibition of human SCH cell growth in a cell viability assay.

A4-Fuk = assay type: functional, cell-based, Homo sapiens; details: Homo sapiens, A4-Fuk;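 note: growth inhibition of A4-Fuk cells, read out by a cell viability assay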
Description: SANGER: Inhibition of human A4-Fuk cell growth in a cell viability assay.

GR-ST = assay type: functional, cell-based, Homo sapiens; details: Homo sapiens, GR-ST
Description: SANGER: Inhibition of human GR-ST cell growth in a cell viability assay.

Mo = assay type: functional, cell-based, Homo sapiens; details: Homo sapiens, Mo
Description: SANGER: Inhibition of human Mo-T cell growth in a cell viability assay.

KLE = assay type: functional, cell-based, Homo sapiens; details: Homo sapiens, KLE;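 note: growth inhibition of human KLE cells, read out with a cell viability assay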
Description: SANGER: Inhibition of human KLE cell growth in a cell viability assay.

ES4 = assay type: functional, cell-based, Homo sapiens; details: Homo sapiens, ES4;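 note: growth inhibition of human ES4 cells, read out by a cell viability assay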
Description: SANGER: Inhibition of human ES4 cell growth in a cell viability assay.

RPMI-8226 = assay type: functional, cell-based, Homo sapiens; details: Homo sapiens, RPMI-8226
Description: SANGER: Inhibition of human RPMI-8226 cell growth in a cell viability assay.

SNU1 = assay type: functional, cell-based, Homo sapiens; details: Homo sapiens, SNU1;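 note: growth inhibition of human NCI-SNU-1 cells, measured with a cell viability assay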
Description: SANGER: Inhibition of human NCI-SNU-1 cell growth in a cell viability assay.

KM-H2 = assay type: functional, cell-based, Homo sapiens; details: Homo sapiens, KM-H2;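 note: growth inhibition of KM-H2 cells, read out by a cell viability assay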
Description: SANGER: Inhibition of human KM-H2 cell growth in a cell viability assay.

L-428 = assay type: functional, cell-based, Homo sapiens; details: Homo sapiens, L-428
Description: SANGER: Inhibition of human L-428 cell growth in a cell viability assay.

HT = assay type: functional, cell-based, Homo sapiens; details: Homo sapiens, HT
Description: SANGER: Inhibition of human HT cell growth in a cell viability assay.

DMS-114 = assay type: functional, cell-based, Homo sapiens; details: Homo sapiens, DMS-114
A101D = assay type: functional, cell-based, Homo sapiens; details: Homo sapiens, A101D;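 note: growth inhibition of the cell line, measured with a viability assay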
Description: SANGER: Inhibition of human A101D cell growth in a cell viability assay.

HAL-01 = assay type: functional, cell-based, Homo sapiens; details: Homo sapiens, HAL-01;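 note: growth inhibition of human HAL-01 cells, read out with a cell viability assay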
Description: SANGER: Inhibition of human HAL-01 cell growth in a cell viability assay.

NB12 = assay type: functional, cell-based, Homo sapiens; details: Homo sapiens, NB12;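 note: growth inhibition of human NB12 cells, read out by a cell viability assay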
Description: SANGER: Inhibition of human NB12 cell growth in a cell viability assay.

MFH-ino = assay type: functional, cell-based, Homo sapiens; details: Homo sapiens, MFH-ino;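 note: growth inhibition of human MFH-ino cells, read out by a cell viability assay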
Description: SANGER: Inhibition of human MFH-ino cell growth in a cell viability assay.

HCC2218 = assay type: functional, cell-based, Homo sapiens; details: Homo sapiens, HCC2218;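 note: cell viability assay read-out, with IC50 given as the concentration that inhibits growth of the cell line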
Description: SANGER: Inhibition of human HCC2218 cell growth in a cell viability assay.

AM-38 = assay type: functional, cell-based, Homo sapiens; details: Homo sapiens, AM-38;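 note: growth inhibition of AM-38 cells of human origin, read out by a cell viability assay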
Description: SANGER: Inhibition of human AM-38 cell growth in a cell viability assay.

NCI-H2126 = assay type: functional, cell-based, Homo sapiens; details: Homo sapiens, NCI-H2126;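 note: growth inhibition of the cancer cell line, determined with a cell viability readout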
Description: SANGER: Inhibition of human NCI-H2126 cell growth in a cell viability assay.

HC-1 = assay type: functional, cell-based, Homo sapiens; details: Homo sapiens, HC-1;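 note: growth inhibition of HC-1 cells measured by a cell viability assay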
Description: SANGER: Inhibition of human HC-1 cell growth in a cell viability assay.

NCI-H1299 = assay type: functional, cell-based, Homo sapiens; details: Homo sapiens, NCI-H1299;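 note: growth inhibition of human NCI-H1299 cells, read out by a cell viability assay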
Description: SANGER: Inhibition of human NCI-H1299 cell growth in a cell viability assay.

Measured: IC50

Oc1ccc2ccccc2c1SSc1c(O)ccc2ccccc12
26.3 µM: ES4
> 32 µM: HCC2157 | A3-KAW | TE-9 | UACC-257 | SJSA-1 | SW 962 | MFM-223 | BB49-HNC | J-RT3-T3-5 | SH-4 | NCI-H1838 | COLO-824 | SHP77 | COR-L88 | ONS-76 | SK-MEL-2 | MZ2-MEL | LB831-BLC | DJM-1 | LOX IMVI | HCC1187 | ACN | HCC 2998 | NCI-H1770 | NCI-N87 | SK-UT-1 | SBC-1 | LS-411N | SCH | Mo | KLE | RPMI-8226 | SNU1 | KM-H2 | L-428 | HT | DMS-114 | A101D | NB12 | MFH-ino | HCC2218 | NCI-H2126 | NCI-H1299
11 µM: GR-ST
25.8 µM: HAL-01
8.07 µM: HC-1
9.44 µM: A4-Fuk
21.7 µM: AM-38

C=C(c1ccc(C(=O)O)cc1)c1cc2c(cc1C)C(C)(C)CCC2(C)C [BEXAROTENE]
3.77 µM: ES4
5.31 µM: SH-4
7.21 µM: MFH-ino
> 8 µM: HCC2157 | A3-KAW | TE-9 | UACC-257 | SJSA-1 | SW 962 | MFM-223 | BB49-HNC | J-RT3-T3-5 | NCI-H1838 | COLO-824 | SHP77 | COR-L88 | ONS-76 | SK-MEL-2 | MZ2-MEL | LB831-BLC | DJM-1 | LOX IMVI | HCC1187 | ACN | HCC 2998 | NCI-H1770 | NCI-N87 | SK-UT-1 | SBC-1 | LS-411N | SCH | A4-Fuk | GR-ST | Mo | KLE | RPMI-8226 | SNU1 | KM-H2 | L-428 | HT | DMS-114 | A101D | HAL-01 | NB12 | HCC2218 | AM-38 | NCI-H2126 | HC-1 | NCI-H1299
